{"source": "patent US20180171411A1", "about": "“GFRalpha1 AS A BIOMARKER FOR CISPLATIN-INDUCED CHEMORESISTANCE AND METASTASIS” (THE BOARD OF REGENTS OF THE UNIVERSITY OF TEXAS SYSTEM, priority 2015, published 2018)", "tested_on": "LC3-II in GFRα1-overexpressing MG-63 cells", "assay": "Immunoblot of LC3-II in GFRα1-overexpressing cells", "format": "cell-based, human", "conditions": "3-MA (10 μM) or Baf (100 nM)", "description": "FIG. 3. GFRα1-induced autophagy enhances the chemoresistance of osteosarcoma cells induced by cisplatin. (a) Control and GFRα1-deficient MG-63 cells were transiently transfected with a mRFP-GFP tandem fluorescent-tagged LC3 (mRFP-GFP-LC3) vector and then treated with cisplatin (20μM) for 24 hr. Left, representative images of RFP-LC3 and GFP-LC3 puncta. Scale bar, 20 μm. Right, quantitative analysis of the number of yellow puncta and the number of RFP-LC3 puncta in the combined images. The values are represented as a mean±s.d.m. (n=3). ** denotes p<0.05 by t-test. (b) Control and GFRα1-deficient MG-63 cells were treated with cisplatin (20 μM) for 24 hr and then stained with acridine orange. […] Bottom, quantitative analysis of the number of AVOs. […] (c) Control and GFRα1-deficient MG-63 cells were treated with cisplatin (20 μM) for 24 hr and then analyzed by TEM. Top, representative images of autophagic vacuoles (yellow arrows) detected after cisplatin treatment in control MG-63 cells. […] Bottom, quantitative analysis of the number of autophagic vacuoles. […] (e) Quantitative analysis of the number of yellow puncta and the number of RFP-LC3 puncta in control and GFRα1-overexpressing MG-63 cells. […] Bottom, quantitative analysis of the number of AVOs. […] (h) Control and GFRα1-overexpressing MG-63 cells were treated with cisplatin (20 μM) for 24 hr and then analyzed by TEM. […]", "data": [{"smiles": "Cn1cnc(N)c2ncnc1-2", "note": "[3-MA, 3-methyladenine]", "values": [{"measurement": "level of LC3-II expression", "value": "reduced"}]}]}
